According to paper PMC5285354, “Cationic Net Charge and Counter Ion Type as Antimicrobial Activity Determinant Factors of Short Lipopeptides” (Frontiers in Microbiology, 2017):
≈ marks a conversion by molar mass, not a printed value. Read-outs that look alike come from different tables or passages of the source. Where a SMILES comes first, the peptide text is derived from it. The star is where a group is joined. Lauroyl = CCCCCCCCCCCC(=O)*

What was measured:
Format in all cases: cell-based
[1] = system: Escherichia coli (ATCC 25922)
Procedure, shortened: (§1)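 MIC in μg/mL, read as the lowest lipopeptide level with no observable growth. Microbroth dilution followed CLSI guidance, using MH broth, 10^5 cfu/mL and 18 h at 37°C for bacterial strains, or Sabouraud Dextrose broth, 10^3 cfu/mL and 48 h at 25°C for yeasts.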

[2] = system: Pseudomonas aeruginosa (ATCC 9027); settings: ATCC 9027, 18 h
Procedure, shortened: as §1

[3] = system: Staphylococcus epidermidis (PCM 2118); settings: for MIC Staphylococcus epidermidis: PCM 2118, 18 h; for MBC Staphylococcus epidermidis: PCM 2118, 24 h
Procedure, shortened: (§2)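 Lowest lipopeptide concentration (μg/mL) with no observable growth gave the MIC, alongside MBC/MFC, by CLSI microbroth dilution. Fungi: Sabouraud dextrose broth, 10^3 cfu/mL start, 25°C for 48 h; bacteria: MH broth, 10^5 cfu/mL, 37°C for 18 h. Run in triplicate, three separate days.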

[4] = system: Bacillus subtilis (ATCC 6633); settings: for MIC Bacillus subtillis: ATCC 6633, 18 h; for MBC Bacillus subtillis: ATCC 6633, 24 h
Procedure, shortened: as §2

[5] = system: Candida albicans (ATCC 10231); settings: ATCC 10231, 48 h
Procedure, shortened: as §1

[6] = system: Candida tropicalis (PCM 2681); settings: PCM 2681, 48 h
Procedure, shortened: as §1

[7] = system: Aspergillus brasiliensis (ATCC 16404); settings: ATCC 16404, 48 h
Procedure, shortened: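 Broth microdilution per CLSI: Mueller-Hinton broth, 10^5 cfu/mL inoculum, 18 h at 37°C for bacteria; Sabouraud dextrose broth, 10^3 cfu/mL, 48 h at 25°C for fungi. MIC (μg/mL) is the lowest lipopeptide concentration inhibiting visible growth; MBC/MFC also determined. Triplicate on three days.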

[8] = system: Proteus vulgaris (PCM 2668); settings: for MBC Proteus vulgaris: subculture on Mueller-Hinton II Agar, 24 h 37°C
Procedure, shortened: as §1

[9] = system: Enterococcus faecalis (ATCC 29212)
Procedure, shortened: as §2

[10] = system: Staphylococcus aureus (ATCC 25923)
Procedure, shortened: as §1

[11] = system: Klebsiella pneumoniae (ATCC 700603)
Procedure, shortened: as §1

[12] = system: Pseudomonas aeruginosa (ATCC 9027); settings: ATCC 9027, 24 h
[13] = system: human red blood cells; settings: 1 h
Protocol: The hemolytic activity of the lipopeptides was determined by exposing human red blood cells (4% v/v) to tested compounds at graded concentrations. Red blood cells were obtained from a healthy donor. EDTA was used to prevent the blood clotting. The plasma was removed via centrifugation and the erythrocytes were washed three times with PBS. The red blood cells were suspended in PBS and incubated with different concentrations of lipopeptides at 37°C for 1 h and centrifuged for 5 min at 1000 × g. The supernatants were transferred to a sterile 96-well plate and hemoglobin release was measured with an Epoch microplate spectrophotometer (BioTek, USA) by recording the absorbance at 550 nm. A 0.1% Triton X-100 solution was used as the positive control (100% of hemolysis) and pure PBS as the negative (0% of hemolysis). Minimum hemolytic concentration (MHC) was taken as the lowest concentration which induced 10% of hemolysis.

[14] = PCM 2668, TFA salt, Mueller-Hinton broth, 10^5 cfu/mL, 18 h 37°C, triplicate

Row | SMILES | MBC Escherichia coli ([1]; ATCC 25922, 24 h) [µg/mL] | MIC Pseudomonas aeruginosa [2] [µg/mL] | MIC Staphylococcus epidermidis [3] [µg/mL] | MBC Staphylococcus epidermidis [3] [µg/mL] | MIC Bacillus subtillis [4] [µg/mL] | MBC Bacillus subtillis [4] [µg/mL] | MFC Candida albicans [5] [µg/mL] | MIC Candida albicans [5] [µg/mL] | MFC Candida tropicalis [6] [µg/mL] | MIC Candida tropicalis [6] [µg/mL] | MFC Aspergillus brasiliensis [7] [µg/mL] | MIC Aspergillus brasiliensis [7] [µg/mL] | MBC Proteus vulgaris ([8]; PCM 2668, TFA salt, triplicate) [µg/mL] | MIC Enterococcus fecalis ([9]; ATCC 29212, 18 h) [µg/mL] | MBC Enterococcus fecalis ([9]; ATCC 29212, 24 h) [µg/mL] | MBC Staphylococcus aureus ([10]; ATCC 25923, 24 h) [µg/mL] | MBC Klebsiella pneumoniae ([11]; ATCC 700603, 24 h) [µg/mL] | MBC Pseudomonas aeruginosa [12] [µg/mL] | Hemolysis HC10 (MHC), concentration of lipopeptide inducing 10% of hemolysis [13] [µg/mL] | MIC Proteus vulgaris [8, 14] [µg/mL] | other results
1 | CCCCCCCCCCCC(=O)N[C@@H](CCCCN)C(N)=O [C12-K-NH2] | 256 (≈ 782 µM) | 128 (≈ 391 µM) | 128 (≈ 391 µM) | 128 (≈ 391 µM) | 128 (≈ 391 µM) | 256 (≈ 782 µM) | 512 (≈ 1560 µM) | 256 (≈ 782 µM) | 512 (≈ 1560 µM) | 256 (≈ 782 µM) | 512 (≈ 1560 µM) | 256 (≈ 782 µM) | >1000 | 256 (≈ 782 µM) | 256 (≈ 782 µM) | 256 (≈ 782 µM) | 256 (≈ 782 µM) | 256 (≈ 782 µM) | 1000 | – | MIC Escherichia coli ([1]; ATCC 25922, 18 h): 256 µg/mL (≈ 782 µM); MIC Proteus vulgaris ([8]; 18 h): >512 µg/mL; MIC Staphylococcus aureus ([10]; ATCC 25923, 18 h): 256 µg/mL (≈ 782 µM); MIC Klebsiella pneumoniae ([11]; ATCC 700603, 18 h): 256 µg/mL (≈ 782 µM)
2 | CCCCCCCCCC(=O)N[C@@H](CCCCN)C(=O)N[C@@H](CCCCN)C(N)=O [C10-KK-NH2] | – | 2000 (≈ 4680 µM) | 256 (≈ 599 µM) | 512 (≈ 1200 µM) | 256 (≈ 599 µM) | 512 (≈ 1200 µM) | 2000 (≈ 4680 µM) | 2000 (≈ 4680 µM) | 1000 (≈ 2340 µM) | 1000 (≈ 2340 µM) | 1000 (≈ 2340 µM) | 1000 (≈ 2340 µM) | >2000 | – | – | – | – | 2000 (≈ 4680 µM) | 4000 | >2000 | MIC Escherichia coli ([1]; ATCC 25922, TFA salt, Mueller-Hinton broth, 10^5 cfu/mL, 18 h 37°C, triplicate): >2000 µg/mL; MBC Escherichia coli ([1]; ATCC 25922, TFA salt, subculture on Mueller-Hinton II Agar, 24 h 37°C, triplicate): >2000 µg/mL; MIC Enterococcus fecalis ([9]; ATCC 29212, TFA salt, Mueller-Hinton broth, 10^5 cfu/mL, 18 h 37°C, triplicate): >2000 µg/mL; MBC Enterococcus fecalis ([9]; ATCC 29212, TFA salt, subculture on Mueller-Hinton II Agar, 24 h 37°C, triplicate): >2000 µg/mL; MBC Staphylococcus aureus ([10]; ATCC 25923, TFA salt, MIC wells subcultured on Mueller-Hinton II Agar, 24 h 37°C, triplicate): >2000 µg/mL; MIC Staphylococcus aureus ([10]; ATCC 25923, TFA salt, Mueller-Hinton broth, 10^5 cfu/mL, 18 h 37°C, triplicate on three days): >2000 µg/mL; MIC Klebsiella pneumoniae ([11]; ATCC 700603, TFA salt, Mueller-Hinton broth, 10^5 cfu/mL, 18 h 37°C, triplicate): >2000 µg/mL; MBC Klebsiella pneumoniae ([11]; ATCC 700603, TFA salt, subculture on Mueller-Hinton II Agar, 24 h 37°C, triplicate): >2000 µg/mL
3 | CCCCCCCCCCCC(=O)N[C@@H](CCCCN)C(=O)NCC(=O)N[C@@H](CCCCN)C(=O)NCC(N)=O [C12-KGKG-NH2] (Lauroyl-KGKG-NH2) | 2000 (≈ 3510 µM) | 1000 (≈ 1760 µM) | 256 (≈ 449 µM) | 512 (≈ 899 µM) | 64 (≈ 112 µM) | 64 (≈ 112 µM) | 2000 (≈ 3510 µM) | 1000 (≈ 1760 µM) | 2000 (≈ 3510 µM) | 1000 (≈ 1760 µM) | 1000 (≈ 1760 µM) | 1000 (≈ 1760 µM) | >2000 | 512 (≈ 899 µM) | 512 (≈ 899 µM) | 2000 (≈ 3510 µM) | 2000 (≈ 3510 µM) | 1000 (≈ 1760 µM) | 256 | >2000 | MIC Escherichia coli ([1]; ATCC 25922, 18 h): 2000 µg/mL (≈ 3510 µM); MIC Staphylococcus aureus ([10]; ATCC 25923, 18 h): 2000 µg/mL (≈ 3510 µM); MIC Klebsiella pneumoniae ([11]; ATCC 700603, 18 h): 2000 µg/mL (≈ 3510 µM)
4 | CCCCCCCCCCCC(=O)N[C@@H](CCCCN)C(=O)N[C@@H](CCCCN)C(=O)N[C@@H](CCCCN)C(N)=O [C12-KKK-NH2] | 1000 (≈ 1710 µM) | 512 (≈ 877 µM) | 64 (≈ 110 µM) | 64 (≈ 110 µM) | 64 (≈ 110 µM) | 128 (≈ 219 µM) | 1000 (≈ 1710 µM) | 1000 (≈ 1710 µM) | 1000 (≈ 1710 µM) | 1000 (≈ 1710 µM) | 512 (≈ 877 µM) | 512 (≈ 877 µM) | – | 512 (≈ 877 µM) | 512 (≈ 877 µM) | 1000 (≈ 1710 µM) | 1000 (≈ 1710 µM) | – | 512 | >2000 | MIC Staphylococcus aureus ([10]; ATCC 25923, 18 h): 1000 µg/mL (≈ 1710 µM); MIC Klebsiella pneumoniae ([11]; ATCC 700603, 18 h): 1000 µg/mL (≈ 1710 µM)
5 | CCCCCCCCCCCC(=O)N[C@@H](CCCCN)C(=O)NCC(=O)N[C@@H](CCCCN)C(N)=O [C12-KGK-NH2] (Lauroyl-Lys-Gly-Lys-NH2) | 1000 (≈ 1950 µM) | 1000 (≈ 1950 µM) | 64 (≈ 125 µM) | 128 (≈ 250 µM) | 512 (≈ 999 µM) | 1000 (≈ 1950 µM) | 2000 (≈ 3900 µM) | 2000 (≈ 3900 µM) | 2000 (≈ 3900 µM) | 2000 (≈ 3900 µM) | 2000 (≈ 3900 µM) | 1000 (≈ 1950 µM) | – | – | – | 1000 (≈ 1950 µM) | 1000 (≈ 1950 µM) | 1000 (≈ 1950 µM) | 1000 | >2000 | –
